PMC3029496 (Biochemistry, 2010)
Like-named read-outs stand apart in the source and are kept apart here.

Tests used:
[1] = molecular target: Mycobacterium tuberculosis PncA (MtPncA) (Mycobacterium tuberculosis, UniProt I6XD65)
PncA [2] = molecular target: T1, PncA (Mycobacterium tuberculosis, UniProt I6XD65); assay type: biochemical
NC(=O)c1cnccn1 = test: purified protein, by the assay type; conditions: pH 7.5; 25.0 °C
PncA [3] = molecular target: T1, PncA; test: biochemical; assay type: biochemical
PncA [4] = molecular target: T1, PncA; test: Inactivation of PncA by iodoacetamide; assay type: biochemical; conditions: concentration and pH dependent loss of activity

Mycobacterium tuberculosis PncA (MtPncA), sequence (I6XD65 whole entry): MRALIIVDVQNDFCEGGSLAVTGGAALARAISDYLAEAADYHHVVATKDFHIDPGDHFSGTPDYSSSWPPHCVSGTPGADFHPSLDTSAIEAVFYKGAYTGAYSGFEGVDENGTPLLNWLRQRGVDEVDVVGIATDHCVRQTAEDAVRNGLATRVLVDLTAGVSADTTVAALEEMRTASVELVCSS
T1 sequence (I6XD65 whole entry): as above

Compound: N#Cc1cnccn1 [pyrazinecarbonitrile]
- enzymatic activity with the compound as substrate [1]: Neither compound is a substrate
- kinact/KI (PncA [2]): 975 M⁻¹ s⁻¹
- mode of inhibition (PncA [2]): irreversible inactivator
- kinact (PncA [2]; pH 7.5): Kinact = 0.06 ± 0.01 sec^−1 Ki = 61 ± 3 μM
- KI (inactivation) (PncA [2]; read-out: Ki (inactivation), pH 7.5): 61 µM

Compound: NC(=O)c1ccccc1 [benzamide]
- enzymatic activity with the compound as substrate [1]: did not observe any enzymatic activity

Compound: (Mycobacterium tuberculosis H37Rv)
- Km (NC(=O)c1cnccn1): 300 ± 40 µM
- kcat (NC(=O)c1cnccn1): 3.8 ± 0.1 s⁻¹
- kcat/Km (NC(=O)c1cnccn1): 13000 M⁻¹ s⁻¹

Compound: O=Cc1cccnc1 [3-pyridine carboxaldehyde]
- mode of inhibition (PncA [3]): competitive inhibitor

Compound: NC(=O)CI [iodoacetamide]
- inactivation of PncA (PncA [4]): inactivator of PncA

Compound: N#Cc1cccnc1 [3-pyridinecarbonitrile]
- mode of inhibition (PncA [3]): reversible, competitive inhibitor
- Ki (PncA [3]; Ki, reversible, competitive inhibitor): ~100 µM
- enzymatic activity with the compound as substrate [1]: Neither compound is a substrate

Compound: NC(=O)c1ccc(N)nc1 [6-aminonicotinamide]
- enzymatic activity with the compound as substrate [1]: did not observe any enzymatic activity

Compound: O=C(O)CN(CCN(CC(=O)O)CC(=O)O)CC(=O)O [EDTA, ethylenediaminetetraacetic acid]
- effect of addition on MtPncA activity [1]: neither the addition of 5 mM EDTA, nor reported inhibitory metals (Zn^+2 for MtPncA) resulted in any decrease in activity
